Data as given in patent US10800792B2, “Inhibitors of Bruton's tyrosine kinase and method of their use” (JANSSEN PHARMACEUTICA NV, priority 2015, dated 2020).

Biological target: unphosphorylated-BTK kinase domain (UP-BTK), GST-tagged human BTK (389-659aa) (Homo sapiens (Human), UniProt Q06187)
Assay: BTK kinase Lanthascreen binding assay
Details: Lanthascreen tracer competition, 60 minutes incubation, pIC50 = negative log of the IC50 in molar; for IC50: read-out: BTK_I_binding pIC50 (converted)
How it was run: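 Tracer-displacement binding assay against the non-phosphorylated enzyme, read by Lanthascreen. Reported: pIC50.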

unphosphorylated-BTK kinase domain (UP-BTK), GST-tagged human BTK (389-659aa), sequence (Q06187 389-659): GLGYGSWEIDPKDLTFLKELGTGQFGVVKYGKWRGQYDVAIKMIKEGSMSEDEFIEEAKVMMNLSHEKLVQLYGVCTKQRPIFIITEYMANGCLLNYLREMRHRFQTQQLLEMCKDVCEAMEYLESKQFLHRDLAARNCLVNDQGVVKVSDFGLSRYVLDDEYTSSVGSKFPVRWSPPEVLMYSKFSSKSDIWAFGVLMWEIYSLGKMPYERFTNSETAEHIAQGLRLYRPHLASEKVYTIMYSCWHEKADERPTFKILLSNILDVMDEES

BTK_I_binding pIC50	Compound	IC50 [µM]
7.4	N#CN1CCC[C@@H](NC(=O)c2sc3nccc4c3c2NC(=O)N4c2ccc(Oc3ccccc3)cc2)C1 [Example 592, (R)—N-(1-Cyanopiperidin-3-yl)-4-oxo-5-(4-phenoxyphenyl)-4,5-dihydro-3H-1-thia-3,5,8-triazaacenaphthylene-2-carboxamide]	
7.2	COCCC(=O)N1CCC[C@@H](NC(=O)c2sc3nccc4c3c2NC(=O)N4c2ccc(Oc3ccccc3)cc2)C1 [Example 593, (R)—N-(1-(3-Methoxypropanoyl)piperidin-3-yl)-4-oxo-5-(4-phenoxyphenyl)-4,5-dihydro-3H-1-thia-3,5,8-triazaacenaphthylene-2-carboxamide]	
7.1	N#CN1CCC(NC(=O)c2sc3nccc4c3c2NC(=O)N4c2ccc(Oc3ccccc3)cc2)CC1 [Example 594, N-(1-Cyanopiperidin-4-yl)-4-oxo-5-(4-phenoxyphenyl)-4,5-dihydro-3H-1-thia-3,5,8-triazaacenaphthylene-2-carboxamide]	
7.1	Cc1cc(Oc2ccccc2)cnc1N1C(=O)Nc2c(C(=O)N[C@@H]3CCCNC3)sc3nccc1c23 [Example 595, (R)-5-(3-Methyl-5-phenoxypyridin-2-yl)-4-oxo-N-(piperidin-3-yl)-4,5-dihydro-3H-1-thia-3,5,8-triazaacenaphthylene-2-carboxamide]	
6.9	O=C(NC1CCN(C(=O)/C=C/CO)CC1)c1sc2nccc3c2c1NC(=O)N3c1ccc(Oc2ccccc2)cc1 [Example 596, (E)-N-(1-(4-Hydroxybut-2-enoyl)piperidin-4-yl)-4-oxo-5-(4-phenoxyphenyl)-4,5-dihydro-3H-1-thia-3,5,8-triazaacenaphthylene-2-carboxamide]	
6.9	COCCC(=O)N1CCC(NC(=O)c2sc3nccc4c3c2NC(=O)N4c2ccc(Oc3ccccc3)cc2)CC1 [Example 597, N-(1-(3-Methoxypropanoyl)piperidin-4-yl)-4-oxo-5-(4-phenoxyphenyl)-4,5-dihydro-3H-1-thia-3,5,8-triazaacenaphthylene-2-carboxamide]	
6.5	O=C(N[C@@H]1CCNC1)c1sc2nccc3c2c1NC(=O)N3c1cccc(-c2ccccc2)c1 [Example 599, (R)-5-([1,1′-Biphenyl]-3-yl)-4-oxo-N-(pyrrolidin-3-yl)-4,5-dihydro-3H-1-thia-3,5,8-triazaacenaphthylene-2-carboxamide]	
6.5	C=CC(=O)N1CCCC(Nc2sc3nccc4c3c2NC(=O)N4c2ccc(Oc3ccccc3)cc2C)C1 (stereo not drawn) [Example 600, 2-((1-Acryloylpiperidin-3-yl)amino)-5-(2-methyl-4-phenoxyphenyl)-3H-1-thia-3,5,8-triazaacenaphthylen-4(5H)-one]	
6.4	CNCC(=O)N1CC[C@@H](NC(=O)c2sc3nccc4c3c2NC(=O)N4c2cccc(-c3ccccc3)c2)C1 [Example 601, (R)-5-([1,1′-Biphenyl]-3-yl)-N-(1-(2-(methylamino)acetyl)pyrrolidin-3-yl)-4-oxo-4,5-dihydro-3H-1-thia-3,5,8-triazaacenaphthylene-2-carboxamide]	
6.4	O=C(N[C@@H]1CCNC1)c1sc2nccc3c2c1NC(=O)N3c1ccnc(-c2ccccc2)c1 [Example 602, (R)-4-Oxo-5-(2-phenylpyridin-4-yl)-N-(pyrrolidin-3-yl)-4,5-dihydro-3H-1-thia-3,5,8-triazaacenaphthylene-2-carboxamide]	
6.3	O=C(N[C@@H]1CCCNC1)c1sc2nccc3c2c1NC(=O)N3c1cccc(C2CCC2)c1 [Example 603, (R)-5-(3-Cyclobutylphenyl)-4-oxo-N-(piperidin-3-yl)-4,5-dihydro-3H-1-thia-3,5,8-triazaacenaphthylene-2-carboxamide]	
6.3	C=CC(=O)N1CCC[C@@H](NC(=O)c2sc3nccc4c3c2NC(=O)N4c2cccc(-c3ccccc3)n2)C1 [Example 604, (R)—N-(1-Acryloylpiperidin-3-yl)-4-oxo-5-(6-phenylpyridin-2-yl)-4,5-dihydro-3H-1-thia-3,5,8-triazaacenaphthylene-2-carboxamide]	
	Cc1cc(OC2CCC2)ccc1N1C(=O)Nc2c(C(=O)N[C@@H]3CCCNC3)sc3nccc1c23 [Example 605, (R)-5-(4-cyclobutoxy-2-methylphenyl)-4-oxo-N-(piperidin-3-yl)-4,5-dihydro-3H-1-thia-3,5,8-triazaacenaphthylene-2-carboxamide]	0.501
6.2	C=CC(=O)N1CCC(Nc2sc3nccc4c3c2NC(=O)N4c2ccc(Oc3ccccc3)cc2C)CC1 [Example 606, 2-((1-Acryloylpiperidin-4-yl)amino)-5-(2-methyl-4-phenoxyphenyl)-3H-1-thia-3,5,8-triazaacenaphthylen-4(5H)-one]	
6.2	C=CC(=O)N1CCC[C@@H](NC(=O)c2sc3nccc4c3c2NC(=O)N4c2ccc(C)c(C(F)(F)F)c2)C1 [Example 607, (R)—N-(1-Acryloylpiperidin-3-yl)-5-(4-methyl-3-(trifluoromethyl)phenyl)-4-oxo-4,5-dihydro-3H-1-thia-3,5,8-triazaacenaphthylene-2-carboxamide]	
6.2	Cc1cc(OC(C)C)ccc1N1C(=O)Nc2c(C(=O)N[C@@H]3CCCN(C(=O)/C=C/CN4C[C@@H]5OCCO[C@@H]5C4)C3)sc3nccc1c23 [Example 608, 5-(4-Isopropoxy-2-methylphenyl)-4-oxo-N—((R)-1-((E)-4-((4aR,7aS)-tetrahydro-2H-[1,4]dioxino[2,3-c]pyrrol-6(3H)-yl)but-2-enoyl)piperidin-3-yl)-4,5-dihydro-3H-1-thia-3,5,8-triazaacenaphthylene-2-carboxamide]	
6.2	O=C(N[C@@H]1CCCNC1)c1sc2nccc3c2c1NC(=O)N3c1cc(-c2ccccc2)ccn1 [Example 610, (R)-4-Oxo-5-(4-phenylpyridin-2-yl)-N-(piperidin-3-yl)-4,5-dihydro-3H-1-thia-3,5,8-triazaacenaphthylene-2-carboxamide]	
6.1	C=CC(=O)N1CCC[C@@H](NC(=O)c2sc3nccc4c3c2NC(=O)N4c2ccc(OC3COC3)cc2)C1 [Example 612, (R)—N-(1-Acryloylpiperidin-3-yl)-5-(4-(oxetan-3-yloxy)phenyl)-4-oxo-4,5-dihydro-3H-1-thia-3,5,8-triazaacenaphthylene-2-carboxamide]	
	O=C(N[C@@H]1CCCNC1)c1sc2nccc3c2c1NC(=O)N3c1cccc(OC2CCCC2)c1 [Example 613, (R)-5-(3-(Cyclopentyloxy)phenyl)-4-oxo-N-(piperidin-3-yl)-4,5-dihydro-3H-1-thia-3,5,8-triazaacenaphthylene-2-carboxamide]	0.794
6.1	C=CC(=O)N1C[C@@H](O)[C@@H](NC(=O)c2sc3nccc4c3c2NC(=O)N4c2ccc(OC(C)C)cc2C)C1 [Example 614, N-((3S,4R)-1-Acryloyl-4-hydroxypyrrolidin-3-yl)-5-(4-isopropoxy-2-methylphenyl)-4-oxo-4,5-dihydro-3H-1-thia-3,5,8-triazaacenaphthylene-2-carboxamide]	

Compound	BTK_I_binding pIC50	IC50 [µM]
C=CC(=O)N1CCC[C@@H](NC(=O)c2sc3nccc4c3c2NC(=O)N4c2cccc(OC3CCC3)c2)C1 [Example 598]	6.5	
